Test results from US20260240844A1, “INHIBITORS OF CHD1L AND USES THEREOF” (The Regents of the University of Colorado, a body corporate, priority 2023, published 2026).

Legend:
PARP1 [1] = biological target: T1, PARP1 (Homo sapiens, UniProt P09874); test: PARP1 enzymatic (colorimetric) assay
Description: First, a 96 well plate was coated with histones. Next, the biotinylated NAD^+ substrate was incubated with an activated DNA template, the inhibitor to test and the PARP1/2 enzyme for 1 h at RT. After that, the sample plate was treated with streptavidin-RP for 30 min at RT, followed by addition of the horseradish peroxidase (HRP) substrate until the colorimetric signal was developed. The EnVision plate reader (PerkinElmer) was used to measure the absorbance at 450 nm and the results were plotted and analyzed using GraphPad Prism.

CRC patient samples = test: Tumor growth inhibition index of CRC patient samples; format: in vivo
From the text: Analytical measurements include tumor volume by caliper and survival. […] Using this information, 8 patient samples with diverse genetic background mutations, stage of cancer, site of cancer (primary vs metastatic) were initially selected (Table 2).

[2] = system: γ-H2AX in SW620 or SUM149PT cells; test: DNA damage (γ-H2AX) immunofluorescence, Example 1; format: cell-based
From the text: The percentage of DNA damage for each single agent dose and combination was plotted on a contour map (FIG. 6A). Each shade on the contour map represents a range of % DNA damage where dark orange is 100% and white is 0% DNA damage.

[3] = system: SUM149 and MDA-MB-231 cells; test: DDR biomarkers in breast cancer cells; format: cell-based; details: 4 μM
From the text: Etoposide was used as a control to show upregulation of DDR pathway biomarkers.

[4] = system: SW620 M-phenotype mouse xenografts; test: Irinotecan drug resistant SW620 M-phenotype mouse xenografts; format: in vivo
[5] = system: colon cancer mouse xenograft; test: Colon cancer mouse xenograft model; format: in vivo, mice
Description: The tumor volume was monitored over 30 days, and the tumor volume was measured after 30 days. The tumor was extracted from the mice, and the dimensions of the tumor were measured to provide a tumor volume in mm^3.
Key: PO=oral; IP=intraperitoneal; ANOVA significance: *: P<0.05; **: P<0.0003; ***: P<0.0001.

PARP1 [6] = biological target: T1, PARP1; test: PARP1 trapping (in situ subcellular fractionation, immunofluorescence)
Description: PARP1/2 and CHD1L trapping—PARP1, PARP2 and CHD1L trapping were assessed. SUM149PT cells were plated at a density of 20,000 cells per well into clear bottom black 96-well plates (PerkinElmer). […] After 4 h incubation, cell media was aspirated and cells were treated for 10 min at 4° C. with cold cytoskeleton (CSK) buffer (10 mM PIPES pH=6.8, 300 mM sucrose, 200 mM NaCl, 3 mM MgCl2) supplemented with 0.6% Triton X-100. […] PARP1 (anti-PARP1 antibody, 1:2000, O/N, 4° C.), PARP2 (anti-PARP2, 1:1000, O/N, 4° C.) and CHD1L (anti-CHD1L, 1:1000, O/N, 4° C.) primary antibodies were then added in antibody dilution buffer (2% BSA in PBS) and incubated O/N at 4° C.
To study the accumulation of bound PARP1/2 on chromatin, in situ subcellular fractioning of SUM149PT cells co-treated with 0.01% methyl methanesulfonate (MMS) and the drug of interest was used, followed by immunofluorescence. […] The cells were exposed to anti-CHD1L and anti-PARP1 fluorescent antibodies, and the cells were subsequently imaged.

[7] = system: SW620 cells and HCT116 cells; test: CHD1L-mediated TCF-transcription and CSC stemness (clonogenic colonies)

T1 sequence (P09874 whole entry): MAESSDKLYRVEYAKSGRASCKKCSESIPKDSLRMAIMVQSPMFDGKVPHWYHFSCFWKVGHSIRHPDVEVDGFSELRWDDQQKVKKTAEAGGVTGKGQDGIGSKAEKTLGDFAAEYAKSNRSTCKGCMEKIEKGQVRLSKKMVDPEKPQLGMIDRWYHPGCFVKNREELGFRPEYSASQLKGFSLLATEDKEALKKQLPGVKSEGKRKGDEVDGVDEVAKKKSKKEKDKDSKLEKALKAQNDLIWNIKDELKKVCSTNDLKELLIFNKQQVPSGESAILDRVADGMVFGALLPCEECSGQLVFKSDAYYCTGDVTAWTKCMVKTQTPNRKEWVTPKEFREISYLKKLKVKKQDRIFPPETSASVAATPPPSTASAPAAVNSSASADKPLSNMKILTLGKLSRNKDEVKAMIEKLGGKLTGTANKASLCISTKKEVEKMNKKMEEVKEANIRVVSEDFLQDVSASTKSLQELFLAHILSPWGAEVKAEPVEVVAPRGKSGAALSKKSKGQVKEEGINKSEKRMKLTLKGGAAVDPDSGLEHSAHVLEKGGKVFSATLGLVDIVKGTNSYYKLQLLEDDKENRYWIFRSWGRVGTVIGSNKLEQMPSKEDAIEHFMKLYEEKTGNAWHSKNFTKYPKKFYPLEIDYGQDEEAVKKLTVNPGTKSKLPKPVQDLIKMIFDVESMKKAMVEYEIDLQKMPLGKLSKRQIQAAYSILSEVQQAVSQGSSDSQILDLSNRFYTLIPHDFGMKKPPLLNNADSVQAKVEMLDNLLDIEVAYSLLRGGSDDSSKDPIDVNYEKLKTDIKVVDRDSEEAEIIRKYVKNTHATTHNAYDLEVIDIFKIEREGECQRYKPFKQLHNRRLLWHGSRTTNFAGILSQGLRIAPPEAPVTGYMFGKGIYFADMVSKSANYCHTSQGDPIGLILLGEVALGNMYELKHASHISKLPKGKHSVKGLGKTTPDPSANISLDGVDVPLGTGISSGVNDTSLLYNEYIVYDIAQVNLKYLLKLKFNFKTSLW

Cc1cc(Nc2ccc(NC(=O)Cc3cccs3)cc2)nc(N2CCCC2)n1 [Compound 6, N-(4-((6-methyl-2-(pyrrolidin-1-yl)pyrimidin-4-yl)amino)phenyl)-2-(thiophen-2-yl)acetamide]
PARP1 enzyme activity (PARP1 [1]): does not have any effect on PARP1/2 activity

O=c1[nH]cc(F)c(=O)[nH]1 [Compound 5-FU, 5-fluorouracil]
5FU Response (tumor growth inhibition index) (CRC patient samples; patient sample CRC001, Primary, KRAS): 185.8% | 5FU Response (tumor growth inhibition index) (CRC patient samples; patient sample CRC026, Metastatic): 77.3% | 5FU Response (tumor growth inhibition index) (CRC patient samples; patient sample CRC042, Primary, KRAS, TP53): 107.8% | 5FU Response (tumor growth inhibition index) (CRC patient samples; patient sample CRC102, Metastatic, KRAS): 113.1%

Cc1cc(Nc2ccc(NC(=O)Cc3cc(Br)cs3)cc2)nc(N2CCCC2)n1 [Compound 6.11, 2-(4-bromothiophen-2-yl)-N-(4-((6-methyl-2-(pyrrolidin-1-yl)pyrimidin-4-yl)amino)phenyl)acetamide]
mean synergy score (Bliss), DNA damage ([2]; combined with 5FU): 23 | mean synergy score (Bliss), DNA damage ([2]; combined with SN38): 24 | DNA damage (γ-H2AX) compared to vehicle ([2]; single agent): no significant DNA damage | amounts of γ-H2AX and 53BP1 [3]: overall decreases in the amounts of γ-H2AX and 53BP1 | inhibition of tumor growth vs irinotecan alone ([4]; Compound 6.11 5 mg/kg IP 1×/day + irinotecan 50 mg/kg 1×/week): significantly more effective at inhibiting tumor growth | increase in mouse survival ([4]; Compound 6.11 5 mg/kg IP 1×/day + irinotecan 50 mg/kg 1×/week vs irinotecan alone): about a month | increase in mouse survival compared to irinotecan alone ([4]; low doses of Compound 6.11 combined with irinotecan, drug resistant CRC nude mouse xenografts): 30 days | decrease in tumor volume ([5]; Compound 6.11 5 mg/kg daily IP + irinotecan 50 mg/kg 1×/week IP, after 20 days): approximately 50% | metastatic tumor burden (bioluminescent imaging, % change total flux) ([5]; Compound 6.11 100 mg/kg 5×/week oral + irinotecan 15 mg/kg 1×/week IP): ~0 | survival ([5]; combination of Compound 6.11 and irinotecan): improved survival rates | increase in PARP1 trapping (PARP1 [6]; SUM149PT cells, 0.01% MMS, 4 h): 10 fold | PARP1/2 trapping compared to olaparib alone (PARP1 [6]; non-trapping doses of Compound 6.11 combined with olaparib): significant increase in PARP1/2 trapping | CHD1L-mediated TCF-transcription and CSC stemness [7]: dose dependent inhibition
